Assay results published in ChEMBL document CHEMBL2157990 (ACS Med Chem Lett, 2012).
Activity calls are given as the source filed them. No cut-off for these calls is given here.

Key:
[1] = Activation of chymotrypsin-like activity of human 20S proteasome using suc-LLVY-AMC as substrate by fluorescence assay
[2] = Inhibition of PA28 activated chymotrypsin-like activity of human 20S proteasome using suc-LLVY-AMC as substrate by fluorescence assay
[3] = organism: Homo sapiens; experiment: Activation of chymotrypsin-like activity of human 20S proteasome using suc-LLVY-AMC as substrate by fluorescence assay relative to control
[4] = Activation of trypsin-like activity of human 20S proteasome using Bz-VGR-AMC as substrate by fluorescence assay
[5] = Activation of caspase-like activity of human 20S proteasome using (Z)-LLE-bNA as substrate by fluorescence assay
[6] = organism: Homo sapiens; experiment: Activation of chymotrypsin-like activity of human 20S proteasome using suc-LLVY-AMC as substrate at 18 uM by fluorescence assay
[7] = organism: Homo sapiens; experiment: Reversal of amyloid beta-induced inhibition of chymotrypsin-like activity of PA28-activated human 20S proteasome using suc-LLVY-AMC as substrate at 14 uM by fluorescence assay; set-up: scale not given: the % may be the effect or the level left
[8] = organism: Homo sapiens; experiment: Reversal of amyloid beta-induced inhibition of chymotrypsin-like activity of PA28-activated human 20S proteasome using suc-LLVY-AMC as substrate by fluorescence assay
[9] = organism: Homo sapiens; experiment: Activation of chymotrypsin-like activity of human 20S proteasome using suc-LLVY-AMC as substrate at 18 uM by fluorescence assay in presence of 1.1 to 30 ug/mL

Row | Compound | EC50 [1] | IC50 ([2]; read-out: IC50) [µM] | EC50 ([1]; read-out: EC50) [µM] | IC50 [2] | further results
1 | COC(=O)CC[C@@H](C)[C@H]1CC[C@H]2[C@@H]3CC[C@@H]4C[C@@H](N)CC[C@]4(C)[C@H]3CC[C@]12C | Not Active | 5.7 | – | – | –
2 | COC(=O)CC[C@@H](C)[C@H]1CC[C@H]2[C@@H]3CC[C@@H]4C[C@H](N)CC[C@]4(C)[C@H]3CC[C@]12C | – | – | 6.7 | Not Active | –
3 | C[C@H](CCC(=O)O)[C@H]1CC[C@H]2[C@@H]3CC[C@@H]4C[C@H](OC(=O)CCCCCC(=O)O)CC[C@]4(C)[C@H]3CC[C@]12C | – | – | > 15 | Not Active | –
4 | COC(=O)CC[C@@H](C)[C@H]1CC[C@H]2[C@@H]3CC[C@@H]4C[C@H](NC(=O)CCCCCC(=O)O)CC[C@]4(C)[C@H]3CC[C@]12C | – | – | 4.3 | Not Active | fold change (FC) [3]: 2
5 | CNC(=O)CC[C@@H](C)[C@H]1CC[C@H]2[C@@H]3CC[C@@H]4C[C@H](OC(=O)CCCCCC(=O)O)CC[C@]4(C)[C@H]3CC[C@]12C | Not Active | – | – | Not Active | –
6 | COC(=O)CC[C@@H](C)[C@H]1CC[C@H]2[C@@H]3CC[C@@H]4C[C@@H](OC(=O)CCCCCC(=O)O)CC[C@]4(C)[C@H]3CC[C@]12C | Not Active | 3.1 | – | – | –
7 | C[C@H](CCC(=O)O)[C@H]1CC[C@H]2[C@@H]3CC[C@@H]4C[C@H](O)CC[C@]4(C)[C@H]3CC[C@]12C [LITHOCHOLIC ACID] | Not Active | > 10 | – | – | –
8 | COC(=O)CC[C@@H](C)[C@H]1CC[C@H]2[C@@H]3CC[C@@H]4C[C@@H](NC(=O)CCCCCC(=O)O)CC[C@]4(C)[C@H]3CC[C@]12C | Not Active | 2.6 | – | – | –
9 | C/C=C1/[C@H](O[C@@H]2O[C@H](CO)[C@@H](O)[C@H](O)[C@H]2O)OC=C(C(=O)OC)[C@H]1CC(=O)OCCc1ccc(O)c(O)c1 [OLEUROPEIN] | Not Active | – | – | Not Active | –
10 | CCOC(=O)CC[C@@H](C)[C@H]1CC[C@H]2[C@@H]3CC[C@@H]4C[C@H](OC(=O)CCCCCC(=O)O)CC[C@]4(C)[C@H]3CC[C@]12C | – | – | > 15 | Not Active | –
11 | COC(=O)CC[C@@H](C)[C@H]1CC[C@H]2[C@@H]3CC[C@@H]4C[C@H](OC(=O)CCCCCC(=O)O)CC[C@]4(C)[C@H]3CC[C@]12C | – | – | 7.8 | Not Active | EC50 [4]: 8.6 µM; EC50 [5]: 11 µM; Activity [6]: Active; Activity [7]: 50%; Activity [8]: Dose-dependent effect; Activity [9]: Active
